Laboratory results from patent publication US20140357633A1, “COMPOUNDS FOR INHIBITING THE INTERACTION OF BCL2 WITH BINDING PARTNERS” (NOVARTIS AG, priority 2011, published 2014).

What was measured:
[1] = molecular target: BCL-2 (binding to BAD peptide) (Homo sapiens, UniProt P10415); test: SPR (Biacore) solution inhibition assay, BCL-2 binding to immobilized BAD peptide; details: biotinylated BAD peptide surface, 56 nM BCL-2, 25° C.; range = high and low IC50 values from multiple experiments; read-out: BCL2_SPR IC50 BAD
Summary of the method: (§1)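 Compounds (6-point threefold series, 16 μM to 0.004 nM) preincubated 1 h with 56 nM BCL-2, then injected 60 s over biotinylated peptide captured on streptavidin chips at 25° C. Running buffer: 10 mM HEPES pH 7.4, 150 mM NaCl, 1.25 mM DTT, 3% DMSO, 0.05% polysorbate 20. % inhibition versus BCL-2-only binding gave IC50.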

[2] = molecular target: BCL-2 (binding to BAK peptide) (Homo sapiens, UniProt P10415); test: SPR (Biacore) solution inhibition assay, BCL-2 binding to immobilized BAK peptide; details: biotinylated BAK peptide surface, 56 nM BCL-2, 25° C.; range = high and low IC50 values from multiple experiments; read-out: BCL2_SPR IC50 BAK
Summary of the method: as §1

Chain of BCL-2 (binding to BAK peptide) (P10415 whole entry): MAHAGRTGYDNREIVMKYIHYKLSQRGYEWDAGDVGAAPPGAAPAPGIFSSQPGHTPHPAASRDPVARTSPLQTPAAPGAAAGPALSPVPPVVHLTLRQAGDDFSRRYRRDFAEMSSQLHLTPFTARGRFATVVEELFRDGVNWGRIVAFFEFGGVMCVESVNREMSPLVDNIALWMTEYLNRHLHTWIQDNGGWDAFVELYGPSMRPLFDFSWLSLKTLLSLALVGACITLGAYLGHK
Chain of BCL-2 (binding to BAD peptide) (P10415 whole entry): as above

Row | Compound | IC50 [1] [µM] | IC50 [2] [µM]
1 | CCCCN(CCCC)C(=O)c1cc(C)n(-c2ccc(NC(=O)c3cc4ccccc4cn3)cc2C(=O)N2Cc3ccccc3C[C@H]2CO)n1 [Example 123] | 0.293 to 0.339 | 0.249 to 0.279
2 | CCCCN(CCCC)C(=O)c1cc(C)n(-c2ccc(NC(=O)CCc3c[nH]c4c(Cl)cccc34)cc2C(=O)N2Cc3ccccc3C[C@H]2CO)n1 [Example 124] | 0.254 to 0.26 | 0.215 to 0.235
3 | CCCCN(CCCC)C(=O)c1cc(C)n(-c2ccc(NC(=O)CNC(=O)c3cccnc3)cc2C(=O)N2Cc3ccccc3C[C@H]2CO)n1 [Example 125] | 0.0887 to 0.103 | 0.0635 to 0.0775
4 | CCCCN(CCCC)C(=O)c1cc(C)n(-c2ccc(NC(=O)COc3ccc4ccccc4c3)cc2C(=O)N2Cc3ccccc3C[C@H]2CO)n1 [Example 126] | 0.06 to 0.0614 | 0.0488 to 0.0505
5 | CCCCN(CCCC)C(=O)c1cc(C)n(-c2ccc(NC(=O)COc3cc(Cl)c(Cl)cc3Cl)cc2C(=O)N2Cc3ccccc3C[C@H]2CO)n1 [Example 127] | 0.131 to 0.138 | 0.106 to 0.108
6 | CCCCN(CCCC)C(=O)c1cc(C)n(-c2ccc(NC(=O)COC3CCCCC3)cc2C(=O)N2Cc3ccccc3C[C@H]2CO)n1 [Example 128] | 0.27 to 0.272 | 0.177 to 0.178
7 | CCCCN(CCCC)C(=O)c1cc(C)n(-c2ccc(NC(=O)CSc3cc(C)c(Cl)cc3Cl)cc2C(=O)N2Cc3ccccc3C[C@H]2CO)n1 [Example 129] | 0.0895 to 0.0929 | 0.0707 to 0.0771
8 | CCCCN(CCCC)C(=O)c1cc(C)n(-c2ccc(NC(=O)CCC3COc4ccccc43)cc2C(=O)N2Cc3ccccc3C[C@H]2CO)n1 (stereo partly shown) [Example 130] | 0.0607 to 0.0614 | 0.0502 to 0.0531
9 | CCCCN(CCCC)C(=O)c1cc(C)n(-c2ccc(NC(=O)Cc3ccc(OC)c(Br)c3)cc2C(=O)N2Cc3ccccc3C[C@H]2CO)n1 [Example 131] | 0.0278 to 0.0366 | 0.0233 to 0.0308
10 | CCCCN(CCCC)C(=O)c1cc(C)n(-c2ccc(NC(=O)c3cc(OC)cc([N+](=O)[O-])c3OC)cc2C(=O)N2Cc3ccccc3C[C@H]2CO)n1 [Example 132] | 0.332 to 0.338 | 0.246 to 0.248
11 | CCCCN(CCCC)C(=O)c1cc(C)n(-c2ccc(NC(=O)CCCOCc3ccccc3)cc2C(=O)N2Cc3ccccc3C[C@H]2CO)n1 [Example 133] | 0.41 to 0.438 | 0.31 to 0.36
12 | CCCCN(CCCC)C(=O)c1cc(C)n(-c2ccc(NC(=O)c3cc(-c4cccc(O)c4)[nH]n3)cc2C(=O)N2Cc3ccccc3C[C@H]2CO)n1 [Example 134] | 0.918 to 0.958 | 0.739 to 0.881
13 | CCCCN(CCCC)C(=O)c1cc(C)n(-c2ccc(NC(=O)C(CC#N)c3ccccc3)cc2C(=O)N2Cc3ccccc3C[C@H]2CO)n1 (stereo partly shown) [Example 135] | 0.129 to 0.14 | 0.107 to 0.111
14 | CCCCN(CCCC)C(=O)c1cc(C)n(-c2ccc(NC(=O)Cc3ccc(OC)c(OC)c3)cc2C(=O)N2Cc3ccccc3C[C@H]2CO)n1 [Example 136] | 0.119 to 0.123 | 0.0954 to 0.0982
15 | CCCCN(CCCC)C(=O)c1cc(C)n(-c2ccc(NC(=O)Cc3ccc(Cl)cc3)cc2C(=O)N2Cc3ccccc3C[C@H]2CO)n1 [Example 137] | 0.083 to 0.0927 | 0.0694 to 0.0749
16 | CCCCN(CCCC)C(=O)c1cc(C)n(-c2ccc(NC(=O)Cc3cccc(Br)c3)cc2C(=O)N2Cc3ccccc3C[C@H]2CO)n1 [Example 138] | 0.0561 to 0.0608 | 0.0438 to 0.053
17 | CCCCN(CCCC)C(=O)c1cc(C)n(-c2ccc(NC(=O)Cc3ccccc3Cl)cc2C(=O)N2Cc3ccccc3C[C@H]2CO)n1 [Example 139] | 0.276 to 0.287 | 0.192 to 0.194
18 | CCCCN(CCCC)C(=O)c1cc(C)n(-c2ccc(NC(=O)c3cccc(-c4ccccc4F)c3)cc2C(=O)N2Cc3ccccc3C[C@H]2CO)n1 [Example 140] | 0.315 to 0.343 | 0.275 to 0.287
19 | CCCCN(CCCC)C(=O)c1cc(C)n(-c2ccc(NC(=O)c3ccc(Oc4ccccc4)nc3)cc2C(=O)N2Cc3ccccc3C[C@H]2CO)n1 [Example 141] | 2.47 to 2.63 | 1.97 to 2.07
20 | CCCCN(CCCC)C(=O)c1cc(C)n(-c2ccc(NC(=O)c3ccc(COC)o3)cc2C(=O)N2Cc3ccccc3C[C@H]2CO)n1 [Example 142] | 1.13 to 1.3 | 0.935 to 1.12
